Assay results: patent US9040519B2, “Fused tetracyclic pyrido [4,3-B] indole and pyrido [3,4-B] indole derivatives and methods of use” (Medivation Technologies, Inc., priority 2010, dated 2015)

Columns and labels:
[1] = target: T1, human recombinant histamine H1 receptor (Homo sapiens, UniProt P35367); assay: Histamine H1 radioligand binding ([3H]Pyrilamine); details: compound at 1 μM, 1.2 nM [3H]Pyrilamine, CHO K1 cells; for inhibition at 1 µM: read-out: Histamine H1 Binding (1 μM), percentage inhibition
T1 construct: expressed in transfected cells; host or cells: CHO-K1
T1 sequence (P35367 whole entry): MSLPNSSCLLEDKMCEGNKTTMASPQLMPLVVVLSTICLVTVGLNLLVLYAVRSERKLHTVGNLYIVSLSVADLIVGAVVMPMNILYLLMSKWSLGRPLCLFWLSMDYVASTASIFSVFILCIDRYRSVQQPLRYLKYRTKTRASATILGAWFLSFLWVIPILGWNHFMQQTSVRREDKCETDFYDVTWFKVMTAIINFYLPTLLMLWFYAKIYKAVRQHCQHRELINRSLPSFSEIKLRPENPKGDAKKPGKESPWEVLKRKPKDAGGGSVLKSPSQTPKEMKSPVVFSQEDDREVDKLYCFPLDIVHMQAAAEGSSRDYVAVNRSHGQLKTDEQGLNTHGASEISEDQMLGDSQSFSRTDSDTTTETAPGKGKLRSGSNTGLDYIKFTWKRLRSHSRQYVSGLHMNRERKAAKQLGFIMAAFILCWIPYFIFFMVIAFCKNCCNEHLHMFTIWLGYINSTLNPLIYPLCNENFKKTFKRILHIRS
Protocol: To evaluate in radioligand binding assays the activity of compounds of the invention, human recombinant histamine H1 receptor expressed in Chinese hamster ovary (CHO) K1 cells (De Backer, M. et al, Biochem. Biophys. Res. Comm. 197(3):1601, 1993) in a modified Tris-HCl buffer (50 mM Tris-HCl, pH 7.4, 2 mM MgCl2, 100 mM NaCl, 250 mM Sucrose) was used. Compounds of the invention were incubated with 1.2 nM [^3H]Pyrilamine for 180 min at 25° C. Non-specific binding was estimated in the presence of 1 μM Pyrilamine. Receptor proteins were filtered and washed, the filters were then counted to determine [^3H]Pyrilamine specifically bound. Compounds were screened at 1 μM or lower, using 1% DMSO as vehicle. Biochemical assay results are presented as the percent inhibition of specific binding in Table 2.

[2] = target: T2, human recombinant dopamine D2L receptor (Homo sapiens, UniProt P14416); assay: Dopamine D2L radioligand binding ([3H]Spiperone); details: compound at 1 μM, CHO cells; for inhibition at 1 µM: read-out: Percentage inhibition of ligand binding, Dopamine D2L; for Percentage inhibition of ligand binding, Dopamine D2L: 1 µM
T2 construct: expressed in transfected cells; host or cells: CHO
T2 sequence (P14416 whole entry): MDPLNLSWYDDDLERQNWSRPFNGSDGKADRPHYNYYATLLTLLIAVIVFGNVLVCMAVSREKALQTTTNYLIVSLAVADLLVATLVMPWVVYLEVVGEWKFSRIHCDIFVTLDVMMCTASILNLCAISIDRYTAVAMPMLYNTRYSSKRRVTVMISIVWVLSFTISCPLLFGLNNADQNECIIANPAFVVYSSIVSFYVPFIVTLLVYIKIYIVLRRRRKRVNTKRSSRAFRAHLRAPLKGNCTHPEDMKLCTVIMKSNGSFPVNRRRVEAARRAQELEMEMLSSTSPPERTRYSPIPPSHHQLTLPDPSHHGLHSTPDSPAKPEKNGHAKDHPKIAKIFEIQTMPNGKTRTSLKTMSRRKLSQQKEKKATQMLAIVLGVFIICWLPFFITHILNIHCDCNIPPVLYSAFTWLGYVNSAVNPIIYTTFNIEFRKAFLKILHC
Protocol: To evaluate in radioligand binding assays the activity of compounds of the invention, human recombinant dopamine D2L receptor expressed in Chinese hamster ovary (CHO) cells (Grandy, D. et al, Proc. Natl. Acad. Sci. USA. 86:9762, 1989; Hayes, G. et al, Mol. Endocrinol. 6:920, 1992) in a modified Tris-HCl buffer (50 mM Tris-HCl, pH 7.4, 1.4 mM Ascorbic Acid, 0.001% BSA, 150 mM NaCl) was used. Compounds of the invention were incubated with 0.16 nM [^3H]Spiperone for 120 min at 25° C. Non-specific binding was estimated in the presence of 10 μM Haloperidol. Receptor proteins were filtered and washed, the filters were then counted to determine [^3H]Spiperone specifically bound. Compounds were screened at 1 μM or lower, using 1% DMSO as vehicle. Biochemical assay results are presented as the percent inhibition of specific binding in Table 3.

[3] = target: T3, human recombinant serotonin (5-Hydroxytryptamine) 5-HT2A receptor (Homo sapiens, UniProt P28223); assay: Serotonin 5-HT2A radioligand binding ([3H]Ketanserin); details: compound at 0.1 μM, CHO K1 cells; for inhibition at 0.1 µM: read-out: Percentage inhibition of ligand binding, Serotonin 5-HT2A
T3 construct: expressed in transfected cells; host or cells: CHO-K1
T3 sequence (P28223 whole entry): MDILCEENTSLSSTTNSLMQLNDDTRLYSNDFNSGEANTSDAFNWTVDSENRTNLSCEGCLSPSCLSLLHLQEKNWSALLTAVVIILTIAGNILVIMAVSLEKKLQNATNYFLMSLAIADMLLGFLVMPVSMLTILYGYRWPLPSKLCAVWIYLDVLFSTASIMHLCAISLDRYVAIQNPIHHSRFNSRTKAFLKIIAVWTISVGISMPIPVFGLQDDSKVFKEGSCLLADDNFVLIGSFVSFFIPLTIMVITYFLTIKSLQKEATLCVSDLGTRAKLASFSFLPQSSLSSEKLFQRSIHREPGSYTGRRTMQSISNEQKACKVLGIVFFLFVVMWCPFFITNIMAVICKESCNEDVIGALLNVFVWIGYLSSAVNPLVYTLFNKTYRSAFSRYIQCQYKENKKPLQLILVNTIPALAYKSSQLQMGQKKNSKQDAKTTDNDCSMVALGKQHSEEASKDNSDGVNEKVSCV
Protocol: To evaluate in radioligand binding assays the activity of compounds of the invention, human recombinant serotonin (5-Hydroxytryptamine) 5-HT2A receptor expressed in Chinese hamster ovary (CHO) K1 cells (Bonhaus, D. et al, Br. J. Pharmacol. 115:622, 1995; Saucier, C. et al, J. Neurochem. 68:1998, 1997) in a 50 mM Tris-HCl buffer, pH 7.4, was used. Compounds of the invention were incubated with 0.5 nM [^3H]Ketanserin for 60 min at 25° C. Non-specific binding was estimated in the presence of 1 μM Mianserin. Receptor proteins were filtered and washed, the filters were then counted to determine [^3H]Ketanserin specifically bound. Compounds were screened at 1 μM or lower, using 1% DMSO as vehicle. Biochemical assay results are presented as the percent inhibition of specific binding in Table 4.

[4] = target: T4, human recombinant serotonin (5-Hydroxytryptamine) 5-HT2C receptor (Homo sapiens, UniProt P28335); assay: Serotonin 5-HT2C radioligand binding ([3H]Mesulergine); details: compound at 0.1 μM, CHO K1 cells; for inhibition at 0.1 µM: read-out: Percentage inhibition of ligand binding, Serotonin 5-HT2C
T4 construct: expressed in transfected cells; host or cells: CHO-K1
T4 sequence (P28335 33-458): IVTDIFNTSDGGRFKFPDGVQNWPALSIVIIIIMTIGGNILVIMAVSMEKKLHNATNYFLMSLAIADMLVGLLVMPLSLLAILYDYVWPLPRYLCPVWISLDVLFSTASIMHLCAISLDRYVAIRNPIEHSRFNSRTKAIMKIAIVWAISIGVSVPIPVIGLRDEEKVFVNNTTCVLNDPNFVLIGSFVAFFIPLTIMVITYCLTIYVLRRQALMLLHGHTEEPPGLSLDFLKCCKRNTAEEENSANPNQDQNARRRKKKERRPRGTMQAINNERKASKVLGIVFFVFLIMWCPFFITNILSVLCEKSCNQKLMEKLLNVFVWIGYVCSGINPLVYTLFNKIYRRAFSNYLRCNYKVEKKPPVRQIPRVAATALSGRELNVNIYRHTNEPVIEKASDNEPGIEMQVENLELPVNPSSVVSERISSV
Protocol: To evaluate in radioligand binding assays the activity of compounds of the invention, human recombinant serotonin (5-Hydroxytryptamine) 5-HT2C receptor expressed in Chinese hamster ovary (CHO) K1 cells (Wolf, W. et al, J. Neurochem. 69:1449, 1997) in a modified Tris-HCl buffer (50 mM Tris-HCl, pH 7.4, 0.1% Ascorbic Acid, 10 μM Pargyline) was used. Compounds of the invention were incubated with 1 nM [^3H]Mesulergine for 60 min at 25° C. Non-specific binding was estimated in the presence of 1 μM Mianserin. Receptor proteins were filtered and washed, the filters were then counted to determine [^3H]Mesulergine specifically bound. Compounds were screened at 1 μM or lower, using 1% DMSO as vehicle. Biochemical assay results are presented as the percent inhibition of specific binding in Table 4.

[5] = target: T5, human recombinant serotonin (5-Hydroxytryptamine) 5-HT6 receptor (Homo sapiens, UniProt P50406); assay: Serotonin 5-HT6 radioligand binding ([3H]LSD); details: compound at 0.1 μM, HeLa cells; for inhibition at 0.1 µM: read-out: Percentage inhibition of ligand binding, Serotonin 5-HT6; for Percentage inhibition of ligand binding, Serotonin 5-HT6: 0.1 µM
T5 construct: expressed in transfected cells; host or cells: HeLa
T5 sequence (P50406 whole entry): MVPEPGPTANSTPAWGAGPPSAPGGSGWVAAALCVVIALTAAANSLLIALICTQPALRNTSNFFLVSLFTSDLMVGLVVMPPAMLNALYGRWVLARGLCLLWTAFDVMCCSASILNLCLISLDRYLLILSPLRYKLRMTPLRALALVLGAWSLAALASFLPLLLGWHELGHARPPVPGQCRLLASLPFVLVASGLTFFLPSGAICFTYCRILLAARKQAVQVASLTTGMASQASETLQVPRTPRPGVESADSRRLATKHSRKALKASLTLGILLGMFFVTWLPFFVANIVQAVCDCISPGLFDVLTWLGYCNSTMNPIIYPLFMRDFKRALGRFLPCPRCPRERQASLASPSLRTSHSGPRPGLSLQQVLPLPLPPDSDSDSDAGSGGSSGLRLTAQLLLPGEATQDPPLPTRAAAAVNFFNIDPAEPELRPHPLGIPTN
Protocol: To evaluate in radioligand binding assays the activity of compounds of the invention, human recombinant serotonin (5-Hydroxytryptamine) 5-HT6 receptor expressed in human HeLa cells (Monsma, F. Jr. et al, Mol. Pharmacol. 43:320, 1993) in a modified Tris-HCl buffer (50 mM Tris-HCl, pH 7.4, 150 mM NaCl, 2 mM Ascorbic Acid, 0.001% BSA) was used. Compounds of the invention were incubated with 1.5 nM [3H]Lysergic acid diethylamide (LSD) for 120 min at 37° C. Non-specific binding was estimated in the presence of 5 μM Serotonin (5-HT). Receptor proteins were filtered and washed, the filters were then counted to determine [3H]LSD specifically bound. Compounds were screened at 1 μM or lower, using 1% DMSO as vehicle. Biochemical assay results are presented as the percent inhibition of specific binding in Table 4.

[6] = target: T6, human recombinant serotonin (5-Hydroxytryptamine) 5-HT7 receptor (Homo sapiens, UniProt P34969); assay: Serotonin 5-HT7 radioligand binding ([3H]LSD); details: compound at 0.1 μM, CHO cells; for inhibition at 0.1 µM: read-out: Percentage inhibition of ligand binding, Serotonin 5-HT7
T6 construct: expressed in transfected cells; host or cells: CHO
T6 sequence (P34969 whole entry): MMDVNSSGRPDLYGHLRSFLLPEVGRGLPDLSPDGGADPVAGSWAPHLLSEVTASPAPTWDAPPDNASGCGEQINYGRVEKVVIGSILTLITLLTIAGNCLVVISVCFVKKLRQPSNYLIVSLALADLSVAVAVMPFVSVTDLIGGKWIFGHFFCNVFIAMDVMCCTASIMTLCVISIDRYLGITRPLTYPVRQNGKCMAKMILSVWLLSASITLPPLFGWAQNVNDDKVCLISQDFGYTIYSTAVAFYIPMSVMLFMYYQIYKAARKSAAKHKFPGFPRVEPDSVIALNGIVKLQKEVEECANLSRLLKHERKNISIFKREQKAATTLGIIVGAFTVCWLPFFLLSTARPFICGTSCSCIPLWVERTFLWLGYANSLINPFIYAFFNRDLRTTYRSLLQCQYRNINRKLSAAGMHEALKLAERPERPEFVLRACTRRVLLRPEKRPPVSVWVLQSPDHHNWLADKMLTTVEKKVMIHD
Protocol: To evaluate in radioligand binding assays the activity of compounds of the invention, human recombinant serotonin (5-Hydroxytryptamine) 5-HT7 receptor expressed in Chinese hamster ovary (CHO) cells (Roth, B. et al, J. Pharmacol. Exp. Ther. 268:1403, 1994; Shen, Y. et al, J. Biol. Chem. 268:18200, 1993) in a modified Tris-HCl buffer (50 mM Tris-HCl, pH 7.4, 10 mM MgCl2, 0.5 mM EDTA) was used. Compounds of invention were incubated with 5.5 nM [^3H] Lysergic acid diethylamide (LSD) for 2 h at 25° C. Non-specific binding was estimated in the presence of 10 μM Serotonin (5-HT). Receptor proteins were filtered and washed, the filters were then counted to determine [^3H]LSD specifically bound. Compounds were screened at 1 μM or lower, using 1% DMSO as vehicle. Biochemical assay results are presented as the percent inhibition of specific binding in Table 4.

Row | Compound | inhibition at 1 µM [1] | inhibition at 1 µM [2] | inhibition at 0.1 µM [3] | inhibition at 0.1 µM [4] | inhibition at 0.1 µM [5] | inhibition at 0.1 µM [6] | Percentage inhibition of ligand binding, Dopamine D2L [2] | Percentage inhibition of ligand binding, Serotonin 5-HT6 [5] | Histamine H1 Binding (1 μM), percentage inhibition [1] | Percentage inhibition of ligand binding, Serotonin 5-HT2A ([3]; 0.1 µM) | Percentage inhibition of ligand binding, Serotonin 5-HT2C ([4]; 0.1 µM) | Percentage inhibition of ligand binding, Serotonin 5-HT7 ([6]; 0.1 µM)
1 | Cc1ccc2c(c1)c1c3n2CCC(c2ccc(F)cc2)CC3(C)CN(C)C1 (stereo not drawn) [Compound 3] | 78% | 22% | 45% | 39% | 10% | 46% |  |  |  |  |  | 
2 | Cc1ccc2c(c1)c1c3n2CC(c2ccc(F)cc2)=CCC3(C)CN(C)C1 (stereo not drawn) [Compound 1, 6-(4-fluoro-phenyl)-2,3a,10-trimethyl-1,2,3,3a,4,7-hexahydro-2,7a-diaza-cyclohepta[jk]fluorene] | 11% | 12% | 56% | 45% | 8% | 26% |  |  |  |  |  | 
3 | Cc1ccc2c(c1)c1c3n2CC=C(c2ccc(F)cc2)CC3(C)CN(C)C1 (stereo not drawn) [Compound 5] | 94% | 60% | 54% | 32% | 39% | 35% |  |  |  |  |  | 
4 | Cc1ccc2c(c1)c1c3n2CC(c2ccncc2)CC3(C)CN(C)C1 (stereo not drawn) [Compound 4] | 12% | 14% | 47% | 35% | 6% | 38% |  |  |  |  |  | 
5 | Cc1ccc2c(c1)c1c3n2CC(C)(c2ccncc2)OC(C)CC3(C)CN(C)C1 (stereo not drawn) [Compound 9] | 6% | 2% | 87% | 73% | 21% | 57% |  |  |  |  |  | 
6 | Cc1ccc2c(c1)c1c3n2CC(c2ccc(F)cc2)CC3(C)CN(C)C1 (stereo not drawn) [Compound 6] | 51% |  | 54% | 38% |  | 39% | 6% | 35% |  |  |  | 
7 | Cc1ccc2c(c1)c1c3n2CC(c2ccc(F)cc2)CCC3(C)CN(C)C1 (stereo not drawn) [Compound 7, 6-(4-fluoro-phenyl)-2,3a,10-trimethyl-1,2,3,3a,4,5,6,7-octahydro-2,7a-diaza-cyclohepta[jk]fluorene] | 19% | 0% | 57% | 41% | 6% | 54% |  |  |  |  |  | 
8 | Cc1ccc2c(c1)c1c3n2CC(c2ccc(F)cc2)CC3(C)CN(C)C1 (stereo not drawn) [Compound 2] |  |  |  |  |  |  | 13% | 12% | 63% | 49% | 36% | 34%
9 | Cc1ccc2c(c1)c1c3n2CC(c2ccncc2)OC(C)CC3(C)CN(C)C1 (stereo not drawn) [Compound 8] | 6% | 13% | 68% | 54% | 4% | 55% |  |  |  |  |  | 
